Assay results taken from patent publication US20260053778A1, “USE OF NOVEL PPAR ACTIVITY MODULATOR FOR PREVENTION, AMELIORATION OR TREATMENT OF DEGENERATIVE BRAIN DISEASES” (POSTECH RESEARCH AND BUSINESS DEVELOPMENT FOUNDATION, priority 2022, published 2026).

Experiments:
PPARα = target: T1, PPARα (Homo sapiens, UniProt Q07869); test: GAL4-transactivation assay in HEK293A cells, PPARα; format: cell-based; conditions: GAL4 reporter, 24 h, compared with WY14643
T1 construct: expressed in transfected cells; host or cells: HEK293A
T1 sequence (Q07869 1-468): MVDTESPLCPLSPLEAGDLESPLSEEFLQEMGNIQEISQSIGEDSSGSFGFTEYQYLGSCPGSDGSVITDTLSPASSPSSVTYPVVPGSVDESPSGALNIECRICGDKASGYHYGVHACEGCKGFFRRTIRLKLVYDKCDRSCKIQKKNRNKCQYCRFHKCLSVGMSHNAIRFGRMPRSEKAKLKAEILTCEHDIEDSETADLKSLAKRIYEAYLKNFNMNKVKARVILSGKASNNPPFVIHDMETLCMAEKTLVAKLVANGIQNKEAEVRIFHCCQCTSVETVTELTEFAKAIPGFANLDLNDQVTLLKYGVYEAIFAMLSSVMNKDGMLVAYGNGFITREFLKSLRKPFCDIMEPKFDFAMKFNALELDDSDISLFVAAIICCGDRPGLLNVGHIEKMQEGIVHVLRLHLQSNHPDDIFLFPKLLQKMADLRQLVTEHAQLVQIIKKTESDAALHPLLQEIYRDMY
Description: (§1) A GAL4-transactivation assay experiment was performed to determine whether the drug was bound to the PPAR ligand binding site. HEK293A cells were transfected with GAL4-reporter plasmid and pGL4.74 (Promega, Madison, WI, USA) as an internal standard via electroporation using the Neon Transfection System (Invitrogen, Carlsbad, CA, USA). All vectors were kindly provided by Professor Kanno Yuichiro, Toho University, Japan. After overnight culture, cells were treated with DTMB and each positive control compound for 24 h. Cells were then harvested, resuspended in luciferase lysis buffer (Promega), and incubated on ice for 10 min. Cell debris was removed by centrifugation at 20,000×g, 4° C. for 10 min, and the supernatant was used for the luciferase assay. Luciferase activity was measured using the Dual Luciferase Reporter Assay System (Promega) according to the manufacturer's instructions. In the measurement experiment, firefly luciferase activity was normalized to Renilla luciferase activity. To investigate the concentration-dependent effect of DTMB drug, EC50 values were measured by treating various concentrations of DTMB.

PPARβ/δ = target: T2, PPARβ/δ (Homo sapiens, UniProt Q03181); test: GAL4-transactivation assay in HEK293A cells, PPARβ/δ; format: cell-based; conditions: GAL4 reporter, 24 h, compared with GW501516
T2 construct: expressed in transfected cells; host or cells: HEK293A
T2 sequence (Q03181 1-441): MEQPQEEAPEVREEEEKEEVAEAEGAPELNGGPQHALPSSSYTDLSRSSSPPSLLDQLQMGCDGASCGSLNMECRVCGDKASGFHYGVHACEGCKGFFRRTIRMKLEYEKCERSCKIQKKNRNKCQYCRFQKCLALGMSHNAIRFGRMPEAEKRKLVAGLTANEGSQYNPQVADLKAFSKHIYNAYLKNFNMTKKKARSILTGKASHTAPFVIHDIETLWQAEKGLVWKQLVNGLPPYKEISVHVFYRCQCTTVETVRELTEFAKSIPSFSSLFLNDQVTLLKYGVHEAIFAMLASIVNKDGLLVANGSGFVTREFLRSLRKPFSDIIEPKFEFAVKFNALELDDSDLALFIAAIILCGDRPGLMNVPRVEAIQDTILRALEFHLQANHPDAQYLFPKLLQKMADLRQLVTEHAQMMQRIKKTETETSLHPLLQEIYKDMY
Description: as §1

[1] = target: T3, HIS-tagged recombinant PPAR α protein (Homo sapiens, UniProt Q07869); test: CNBr-drug and protein binding experiment, PPARα; conditions: Western blotting after 24 h incubation
T3 sequence (Q07869 239-466 limits assumed): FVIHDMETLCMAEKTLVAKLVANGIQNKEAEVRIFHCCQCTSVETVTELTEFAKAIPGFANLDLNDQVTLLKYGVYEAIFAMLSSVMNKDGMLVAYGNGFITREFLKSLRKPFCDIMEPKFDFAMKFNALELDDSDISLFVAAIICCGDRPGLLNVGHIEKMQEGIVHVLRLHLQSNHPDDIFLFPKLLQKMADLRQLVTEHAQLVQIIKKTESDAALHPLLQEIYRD
Description: (§2) Since the computer prediction program predicted that DTMB binds to PPAR transcription factors, CNBr-drug and protein binding experiments were conducted to confirm whether DTMB actually binds to PPAR. To determine the actual degree of drug-protein binding, the reaction of the protein of the PPAR-α, β/δ, γ ligand-binding portion with the DTMB drug-bound CNBr beads was confirmed through Western blotting.
(§3) Specifically, CNBr Sepharose 4B beads were prepared and activated according to the instructions. 100 mg of CNBr-activated Sepharose 4B beads were incubated with drugs or DMSO at 4° C. for 18 h. The drug-bound beads reacted with HIS-tagged recombinant PPAR α, β/δ, and γ proteins. After 24 h of incubation, Western blotting experiments were performed to confirm whether the recombinant proteins bound to the drug-bound beads.

[2] = target: T4, HIS-tagged recombinant PPAR β/δ protein (Homo sapiens, UniProt Q03181); test: CNBr-drug and protein binding experiment, PPARβ/δ; conditions: Western blotting after 24 h incubation
T4 sequence (Q03181 211-439 limits assumed): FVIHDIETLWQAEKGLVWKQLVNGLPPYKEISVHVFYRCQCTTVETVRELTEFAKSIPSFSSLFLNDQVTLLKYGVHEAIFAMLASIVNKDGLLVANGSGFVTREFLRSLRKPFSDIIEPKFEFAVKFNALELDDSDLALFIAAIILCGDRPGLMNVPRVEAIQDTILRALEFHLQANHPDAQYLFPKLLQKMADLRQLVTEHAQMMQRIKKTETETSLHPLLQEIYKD
Description: as §2, §3

BV2 cell line = test: Cell viability assay (MTT), BV2; format: cell-based, mouse; conditions: BV2, 48 h, at higher concentrations
Description: Cell viability was measured by a chromogenic assay that biologically reduces 3-(4,5-dimethyl-thiazol-2-yl)-2,5-diphenyltetrazolium bromide (MTT) to formazan in living cells. Briefly, cells were cultured in 96-well plates in a final volume of 100 μL. After 24 h, the culture medium was replaced with fresh medium containing DTMB compound, and the cells were cultured for another 48 h. Next, MTT (dissolved in PBS at 5 mg/mL) was added to the culture medium. The cells were cultured in the dark at 37° C. for 1 h, and then the supernatant was removed from the wells. The formazan crystals were dissolved by adding total MTT solvent (4 mM HCl and 0.1% Nonidet P-40, both dissolved in isopropanol), and the absorbance was measured at 570 nm using a microplate reader, Infinite 200 Pro NanoQuant microplate reader (TECAN, Switzerland).

Binding of PPARα ligand-binding protein to drug-bound CNBr beads [1]: binds to all subtypes of PPAR | Binding of PPARβ/δ ligand-binding protein to drug-bound CNBr beads [2]: binds to all subtypes of PPAR
Structure (SMILES): COc1ccc(-c2cc(=O)oc3c(C)c(OC(=O)[C@H](Cc4c[nH]c5ccccc45)NC(=O)OC(C)(C)C)ccc23)cc1 [DTMB, [4-(4-Methoxyphenyl)-8-methyl-2-oxochromen-7-yl](2S)-3-(1H-indol-3-yl)-2-[(2-methylpropan-2-yl)oxycarbonylamino]propanoate]
PPARα activation versus positive control (PPARα): activated at a lower concentration than WY14643 | PPARβ/δ activation versus positive control (PPARβ/δ): activated at a slightly higher concentration than GW501516 and rosiglitazone, respectively | Cytotoxicity (MTT) (BV2 cell line): no cytotoxicity
